Source: US20240300958A1, “COMPOUNDS AND THE USES AND PHARMACEUTICAL COMPOSITIONS THEREOF” (BEIJING YOUZHUJU NETWORK TECHNOLOGY CO. LTD., priority 2023, published 2024)
Read-outs that look alike come from different tables or passages of the source.

Key:
Assay in all cases: Kinase inhibition profile (HTRF / ADP Glo kinase assay)
Type in all cases: biochemical
CHK1 = CHK1 (Homo sapiens (Human), UniProt O14757)
Method: (§1) HTRF kinase assay: 2×ATP and substrate solution as well as 2× kinase and metal solution were prepared with assay buffer. 25 nL of compound was transferred to 384-well assay plate by Echo 655. After centrifugation, 2.5 μL of 2× kinase/metal ion solution was added to the 384-well assay plate followed by incubation at 25° C. for 10 min. 2.5 μL of 2× substrate and ATP solution was added to the wells followed by incubation at 25° C. for 60 min. 2× XL665 and antibody solution was prepared with assay buffer. 5 μL of kinase detection reagent was added to the wells followed by incubation at 25° C. for 60 min. Fluorescence signals at 620 nm (Cryptate) and 665 nm (XL665) were read with a microtiter plate reader. ADP Glo kinase assay: 2×ATP and substrate solution as well as 2× kinase and metal solution were prepared with assay buffer. 20 nL of compound was transferred to 384-well assay plate by Echo 655. 2 μL of 2× kinase/metal ion solution was added followed by incubation at 25° C. for 10 min in the 384-well assay plate. 2 μL of 2× substrate and ATP solution was added to the wells followed by incubation at 25° C. for 60 min. 4 μL of ADP Glo reagent was added to the wells followed by incubation at 25° C. for 40 min. 8 μL of kinase test reagent was added to the wells followed by incubation at 25° C. for 40 min. The luminescence signals were recorded on a microtiter plate reader. Data analysis: the reaction control (0.5% DMSO) reading was set to 0% inhibition, and the background (10 μM positive control) reading was set to 100% inhibition, then the percent inhibition for each test solution was calculated and the results are shown in Table 2 and FIG. 3.

HGK = HGK (Homo sapiens (Human), UniProt O95819)
Method: as §1

TIE2 = TIE2 (Homo sapiens (Human), UniProt Q02763)
Method: as §1

CK1α = CK1α (Homo sapiens (Human), UniProt P48729)
Method: as §1

PLK1 = PLK1 (Homo sapiens (Human), UniProt P53350)
Method: as §1

PKCα = PKCα (Homo sapiens (Human), UniProt P17252)
Method: as §1

TRKB = TRKB (Homo sapiens (Human), UniProt Q16620)
Method: as §1

CK1γ3 = CK1γ3 (Homo sapiens (Human), UniProt Q9Y6M4)
Method: as §1

HIPK1 = HIPK1 (Homo sapiens (Human), UniProt Q86Z02)
Method: as §1

p70S6K = p70S6K (Homo sapiens (Human), UniProt P23443)
Method: as §1

JNK1 = JNK1 (Homo sapiens (Human), UniProt P45983)
Method: as §1

DCAMKL2 = DCAMKL2 (Homo sapiens (Human), UniProt Q8N568)
Method: as §1

TSSK1 = TSSK1 (Homo sapiens (Human), UniProt Q9BXA7)
Method: as §1

IGF1R = IGF1R (Homo sapiens (Human), UniProt P08069)
Method: as §1

JAK3 = JAK3 (Homo sapiens (Human), UniProt P52333)
Method: as §1

CDK5/p35NCK = CDK5/p35NCK (Homo sapiens (Human), UniProt Q00535)
Method: as §1

IKKα = IKKα (Homo sapiens (Human), UniProt O15111)
Method: as §1

RSK1 = RSK1 (Homo sapiens (Human), UniProt Q15418)
Method: as §1

[1] = 1 uM Compound C1, read-out: % Inhibition (First measurement)
[2] = 1 uM Compound C1, read-out: % Inhibition (Second measurement)
[3] = 1 uM Compound C1, read-out: Average inhibition (%)

CDK5/p35NCK, sequence (Q00535 whole entry, species assumed): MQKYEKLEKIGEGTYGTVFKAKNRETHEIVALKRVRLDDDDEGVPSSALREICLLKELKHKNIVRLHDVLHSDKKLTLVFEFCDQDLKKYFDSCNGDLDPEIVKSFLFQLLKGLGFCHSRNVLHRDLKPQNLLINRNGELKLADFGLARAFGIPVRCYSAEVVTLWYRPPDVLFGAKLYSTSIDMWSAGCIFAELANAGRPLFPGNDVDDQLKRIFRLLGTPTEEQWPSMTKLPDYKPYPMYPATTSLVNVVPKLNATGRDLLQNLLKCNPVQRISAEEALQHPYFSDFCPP
CDK5/p35NCK, sequence (Q15078 whole entry partner, species assumed): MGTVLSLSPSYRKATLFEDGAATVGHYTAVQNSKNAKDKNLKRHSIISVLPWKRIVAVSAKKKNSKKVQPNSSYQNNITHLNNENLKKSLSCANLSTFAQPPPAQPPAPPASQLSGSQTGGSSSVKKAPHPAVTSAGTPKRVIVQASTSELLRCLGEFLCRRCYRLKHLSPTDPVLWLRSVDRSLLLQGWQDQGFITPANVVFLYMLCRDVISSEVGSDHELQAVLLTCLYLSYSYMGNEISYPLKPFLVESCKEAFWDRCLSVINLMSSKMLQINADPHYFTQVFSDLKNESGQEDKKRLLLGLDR
TSSK1, sequence (Q9BXA7 whole entry, species assumed): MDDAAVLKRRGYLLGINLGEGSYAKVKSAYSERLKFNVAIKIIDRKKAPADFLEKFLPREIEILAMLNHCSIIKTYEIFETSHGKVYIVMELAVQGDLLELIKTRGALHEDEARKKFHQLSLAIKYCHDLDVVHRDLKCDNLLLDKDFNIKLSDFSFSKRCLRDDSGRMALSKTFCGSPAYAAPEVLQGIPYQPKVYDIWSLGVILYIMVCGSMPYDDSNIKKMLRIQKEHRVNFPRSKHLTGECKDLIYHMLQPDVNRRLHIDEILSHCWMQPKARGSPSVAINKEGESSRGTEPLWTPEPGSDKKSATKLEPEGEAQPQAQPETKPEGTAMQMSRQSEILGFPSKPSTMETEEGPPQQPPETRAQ
PLK1, sequence (P53350 whole entry, species assumed): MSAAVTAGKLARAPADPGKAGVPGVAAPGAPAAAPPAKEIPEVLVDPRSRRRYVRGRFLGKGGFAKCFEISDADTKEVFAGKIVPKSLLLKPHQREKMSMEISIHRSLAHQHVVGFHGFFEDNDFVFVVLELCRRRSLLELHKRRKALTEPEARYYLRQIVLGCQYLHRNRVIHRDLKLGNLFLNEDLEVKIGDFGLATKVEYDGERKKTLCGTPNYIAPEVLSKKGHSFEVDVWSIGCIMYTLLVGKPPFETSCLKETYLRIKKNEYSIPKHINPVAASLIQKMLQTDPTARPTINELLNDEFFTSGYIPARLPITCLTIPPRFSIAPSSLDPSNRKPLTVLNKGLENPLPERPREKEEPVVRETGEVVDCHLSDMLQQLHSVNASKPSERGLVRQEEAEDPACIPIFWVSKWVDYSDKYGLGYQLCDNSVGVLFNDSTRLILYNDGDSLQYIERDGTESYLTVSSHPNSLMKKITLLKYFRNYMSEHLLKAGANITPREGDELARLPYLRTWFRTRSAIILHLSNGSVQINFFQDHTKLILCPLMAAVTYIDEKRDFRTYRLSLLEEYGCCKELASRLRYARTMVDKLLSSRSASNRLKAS
TRKB, sequence (Q16620 32-822, species assumed): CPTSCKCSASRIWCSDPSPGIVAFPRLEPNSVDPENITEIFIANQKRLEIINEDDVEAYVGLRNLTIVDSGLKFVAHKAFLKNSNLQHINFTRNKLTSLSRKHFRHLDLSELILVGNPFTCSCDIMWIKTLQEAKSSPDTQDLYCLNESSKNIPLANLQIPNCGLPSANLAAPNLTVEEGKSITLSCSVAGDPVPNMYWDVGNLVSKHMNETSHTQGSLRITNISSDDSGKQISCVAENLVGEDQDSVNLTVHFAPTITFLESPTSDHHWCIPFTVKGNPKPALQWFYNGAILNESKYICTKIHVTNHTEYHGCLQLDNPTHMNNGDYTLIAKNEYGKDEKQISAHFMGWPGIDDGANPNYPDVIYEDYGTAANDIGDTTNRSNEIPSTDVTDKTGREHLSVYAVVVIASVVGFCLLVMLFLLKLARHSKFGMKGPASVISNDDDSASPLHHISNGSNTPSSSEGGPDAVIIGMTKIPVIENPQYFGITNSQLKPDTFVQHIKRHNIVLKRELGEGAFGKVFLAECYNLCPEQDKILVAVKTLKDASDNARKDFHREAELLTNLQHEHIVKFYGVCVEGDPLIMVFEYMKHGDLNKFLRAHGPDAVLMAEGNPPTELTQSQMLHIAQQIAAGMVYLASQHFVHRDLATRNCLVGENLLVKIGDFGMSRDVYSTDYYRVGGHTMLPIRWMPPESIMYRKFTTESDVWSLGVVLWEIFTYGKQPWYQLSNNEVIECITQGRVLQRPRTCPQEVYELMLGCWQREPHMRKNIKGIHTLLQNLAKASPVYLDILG
HGK, sequence (O95819 whole entry, species assumed): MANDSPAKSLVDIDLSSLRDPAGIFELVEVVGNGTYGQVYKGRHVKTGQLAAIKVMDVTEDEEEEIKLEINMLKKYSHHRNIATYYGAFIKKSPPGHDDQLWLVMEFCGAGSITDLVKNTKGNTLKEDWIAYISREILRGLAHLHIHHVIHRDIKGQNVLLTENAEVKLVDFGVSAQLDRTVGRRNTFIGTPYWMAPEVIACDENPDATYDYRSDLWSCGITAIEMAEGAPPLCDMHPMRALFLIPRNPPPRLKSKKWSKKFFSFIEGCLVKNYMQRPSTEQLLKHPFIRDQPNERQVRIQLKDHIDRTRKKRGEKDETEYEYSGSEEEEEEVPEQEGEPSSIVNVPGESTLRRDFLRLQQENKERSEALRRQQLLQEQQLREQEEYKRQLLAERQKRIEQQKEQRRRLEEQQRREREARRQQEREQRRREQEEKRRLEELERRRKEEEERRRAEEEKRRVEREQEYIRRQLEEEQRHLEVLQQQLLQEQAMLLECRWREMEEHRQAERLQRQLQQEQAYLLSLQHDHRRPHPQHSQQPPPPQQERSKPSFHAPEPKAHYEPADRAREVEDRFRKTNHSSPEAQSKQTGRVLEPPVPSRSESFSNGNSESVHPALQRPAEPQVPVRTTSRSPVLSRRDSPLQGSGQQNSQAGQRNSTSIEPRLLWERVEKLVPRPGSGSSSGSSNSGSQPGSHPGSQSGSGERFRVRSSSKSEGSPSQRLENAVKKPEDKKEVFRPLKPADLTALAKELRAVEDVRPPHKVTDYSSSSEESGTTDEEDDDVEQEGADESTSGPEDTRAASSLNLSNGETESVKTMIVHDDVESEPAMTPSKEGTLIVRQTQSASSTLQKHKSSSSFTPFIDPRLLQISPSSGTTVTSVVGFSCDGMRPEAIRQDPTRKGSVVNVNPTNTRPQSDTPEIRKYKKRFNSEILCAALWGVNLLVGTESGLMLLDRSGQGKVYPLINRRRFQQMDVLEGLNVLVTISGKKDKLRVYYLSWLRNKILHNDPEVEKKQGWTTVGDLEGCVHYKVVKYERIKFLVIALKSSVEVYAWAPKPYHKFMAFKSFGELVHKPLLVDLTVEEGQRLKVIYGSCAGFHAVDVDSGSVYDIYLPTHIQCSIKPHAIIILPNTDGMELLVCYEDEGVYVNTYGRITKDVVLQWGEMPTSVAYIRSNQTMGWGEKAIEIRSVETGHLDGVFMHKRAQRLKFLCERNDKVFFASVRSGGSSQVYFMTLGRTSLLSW
p70S6K, sequence (P23443 whole entry): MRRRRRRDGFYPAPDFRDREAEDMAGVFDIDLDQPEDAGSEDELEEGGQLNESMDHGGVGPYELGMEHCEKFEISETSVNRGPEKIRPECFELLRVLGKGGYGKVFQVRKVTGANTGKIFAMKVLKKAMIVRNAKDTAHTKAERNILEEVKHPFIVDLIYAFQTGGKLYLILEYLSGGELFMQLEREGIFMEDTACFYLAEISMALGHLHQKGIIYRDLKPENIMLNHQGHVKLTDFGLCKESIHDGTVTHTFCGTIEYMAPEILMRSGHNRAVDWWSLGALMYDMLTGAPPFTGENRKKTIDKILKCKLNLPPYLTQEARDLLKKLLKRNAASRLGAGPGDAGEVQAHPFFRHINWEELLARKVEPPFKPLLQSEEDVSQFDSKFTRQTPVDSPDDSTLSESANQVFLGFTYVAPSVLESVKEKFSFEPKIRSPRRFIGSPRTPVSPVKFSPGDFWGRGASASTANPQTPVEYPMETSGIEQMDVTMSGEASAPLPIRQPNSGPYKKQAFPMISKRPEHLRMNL

Cc1ccc(C(=O)Nc2ccccn2)cc1C#Cc1cnc2cc(C3=CCCCC3)cnn12 [Compound C1, 3-{2-[7-(cyclohex-1-en-1-yl)imidazo[1,2-b]pyridazin-3-yl]ethynyl}-4-methyl-N-(pyridin-2-yl)benzamide]
inhibition at 1 µM (CHK1; [1]): -10.6% | inhibition at 1 µM (CHK1; [2]): -13.6% | inhibition at 1 µM (CHK1; [3]): -12.1% | inhibition at 1 µM (HGK; [1]): 18.5% | inhibition at 1 µM (HGK; [2]): 17% | inhibition at 1 µM (HGK; [3]): 17.7% | inhibition at 1 µM (TIE2; [1]): -5.65% | inhibition at 1 µM (TIE2; [2]): 6.2% | inhibition at 1 µM (TIE2; [3]): 0.28% | inhibition at 1 µM (CK1α; [1]): 5.8% | inhibition at 1 µM (CK1α; [2]): -5.89% | inhibition at 1 µM (CK1α; [3]): -0.04% | inhibition at 1 µM (PLK1; [1]): 24.1% | inhibition at 1 µM (PLK1; [2]): 20.6% | inhibition at 1 µM (PLK1; [3]): 22.4% | inhibition at 1 µM (PKCα; [1]): -1.67% | inhibition at 1 µM (PKCα; [2]): -17.2% | inhibition at 1 µM (PKCα; [3]): -9.44% | inhibition at 1 µM (TRKB; [1]): 20.8% | inhibition at 1 µM (TRKB; [2]): 40.4% | inhibition at 1 µM (TRKB; [3]): 30.6% | inhibition at 1 µM (CK1γ3; [1]): -7.05% | inhibition at 1 µM (CK1γ3; [2]): 1.91% | inhibition at 1 µM (CK1γ3; [3]): -2.57% | inhibition at 1 µM (HIPK1; [1]): 6.91% | inhibition at 1 µM (HIPK1; [2]): 4.17% | inhibition at 1 µM (HIPK1; [3]): 5.54% | inhibition at 1 µM (p70S6K; [1]): 0.46% | inhibition at 1 µM (p70S6K; [2]): -0.19% | inhibition at 1 µM (p70S6K; [3]): 0.14% | inhibition at 1 µM (JNK1; [1]): 4.56% | inhibition at 1 µM (JNK1; [2]): 5.69% | inhibition at 1 µM (JNK1; [3]): 5.13% | inhibition at 1 µM (DCAMKL2; [1]): -8.91% | inhibition at 1 µM (DCAMKL2; [2]): -8.39% | inhibition at 1 µM (DCAMKL2; [3]): -8.65% | inhibition at 1 µM (TSSK1; [1]): -15.1% | inhibition at 1 µM (TSSK1; [2]): -3.43% | inhibition at 1 µM (TSSK1; [3]): -9.28% | inhibition at 1 µM (IGF1R; [1]): -0.05% | inhibition at 1 µM (IGF1R; [2]): -2.29% | inhibition at 1 µM (IGF1R; [3]): -1.17% | inhibition at 1 µM (JAK3; [1]): -1.28% | inhibition at 1 µM (JAK3; [2]): 2.46% | inhibition at 1 µM (JAK3; [3]): 0.59% | inhibition at 1 µM (CDK5/p35NCK; [1]): 31.2% | inhibition at 1 µM (CDK5/p35NCK; [2]): 31.2% | inhibition at 1 µM (CDK5/p35NCK; [3]): 31.2% | inhibition at 1 µM (IKKα; [1]): -18% | inhibition at 1 µM (IKKα; [2]): -12.9% | inhibition at 1 µM (IKKα; [3]): -15.5% | inhibition at 1 µM (RSK1; [1]): 0.73% | inhibition at 1 µM (RSK1; [2]): -7.9% | inhibition at 1 µM (RSK1; [3]): -3.59%
